Patent US20060014790A1, “Methods of treatment of amyloidosis using spirocyclohexane aspartyl-protease inhibitors” (priority 2004, published 2006)

How the values were obtained:
A-beta = experiment: Efficacy of compounds to inhibit A-beta concentration (% inhibition vs vehicle control); format: in vivo, rat
Method: Efficacious compounds of the present invention are those able to decrease the amount of A-beta produced compared to a control, where beta-secretase mediated cleavage is observed and measured in the absence of the compounds. Detection of efficacy can be by analysis of A-beta levels, for example, by immunoassay, fluorometric or chromogenic assay, HPLC, or other means of detection. The efficacy of the compounds of formula (I) was determined as a percentage inhibition corresponding to A-beta concentrations for tissue treated and untreated with compound.
The invention encompasses compounds of formula (I) that are efficacious.

[1] = molecular target: catE / beta-secretase (BACE); experiment: CatE/BACE selectivity (ratio of IC50 values); format: biochemical; conditions: each value is an average of four experimental runs; multiple values = more than one experiment
Method: Selectivity was calculated as a ratio of inhibition (IC50) values in which the inhibition of beta-secretase was compared to the inhibition of other aspartyl proteases.
Selectivity is reported as the ratio of IC50(catE):IC50(BACE).
In the following examples, each value is an average of four experimental runs and multiple values for one compound indicate that more than one experiment was conducted.

[2] = Brain uptake (brain penetration after IV administration); conditions: CF-1, mouse, in vivo, 10 μmol/kg
Method: The following assay was employed to determine the brain penetration of compounds encompassed by the present invention.
In-life phase: Test compounds were administered to CF-1 (20-30 g) mice at 10 μmol/kg (4 to 7 mg/kg) following IV administration in the tail vein. Two time-points, 5 and 60 min, were collected post dose. Four mice were harvested for heparinized plasma and non-perfused brains at each time-point for a total of 8 mice per compound.
Analytical phase: Samples were extracted and evaporated to dryness, then reconstituted and injected onto a reverse phase chromatographic column while monitoring the effluent with a triple quadrupole mass spectrometer. Quantitation was then performed with a 1/x^2 weighted fit of the least-squares regression from calibration standards prepared in parallel with the in vivo samples. The lower limit of quantitation (LOQ) is generally 1 ng/mL and 0.5 ng/g for the plasma and brain respectively. Data was reported in micromolar (μM) units. Brain levels were corrected for plasma volumes (16 μL/g).

SMILES | Efficacy (% Inhibition, 100 mg/kg) plasma (A-beta) [%] | IC50 catE/IC50 BACE [1] | other results
CC(=O)NC(Cc1cc(F)cc(F)c1)C(O)CNC1(c2cccc(C(C)(C)C)c2)CCC(O)CC1 (single isomer, unassigned) [195-5 Diastereomer A, N-[3-[1-(3-tert-Butyl-phenyl)-4-hydroxy-cyclohexylamino]-1-(3,5-difluoro-benzyl)-2-hydroxy-propyl]-acetamide] | 55 | – | –
CONC1CCC(NCC(O)C(Cc2cc(F)cc(F)c2)NC(C)=O)(c2cccc(C(C)(C)C)c2)CC1 (single isomer, unassigned) [195-7 Diastereomer A, N-(4-(1-(3-tert-butylphenyl)-4-(methoxyamino)cyclohexylamino)-1-(3,5-difluorophenyl)-3-hydroxybutan-2-yl)acetamide] | 50 | – | –
CC(=O)NC(Cc1cc(F)cc(F)c1)C(O)CNC1(c2cccc(C(C)(C)C)c2)CCC(NO)CC1 (single isomer, unassigned) [195-8 Diastereomer A, N-(4-(1-(3-tert-butylphenyl)-4-(hydroxyamino)cyclohexylamino)-1-(3,5-difluorophenyl)-3-hydroxybutan-2-yl)acetamide] | – | – | Efficacy (% Inhibition, 100 mg/kg) cortex (A-beta): 7%
CC(=O)NC(Cc1cc(F)cc(F)c1)C(O)CNC1(c2cccc(C(C)(C)C)c2)CCC(NC=O)CC1 (single isomer, unassigned) [196B-36 Diastereomer A, N-(4-(1-(3-tert-butylphenyl)-4-formamidocyclohexylamino)-1-(3,5-difluorophenyl)-3-hydroxybutan-2-yl)acetamide] | – | 26.5 | –
CNC(=O)NC1CCC(NCC(O)C(Cc2cc(F)cc(F)c2)NC(C)=O)(c2cccc(C(C)(C)C)c2)CC1 (single isomer, unassigned) [196B-38 Diastereomer B, 1-(4-(3-acetamido-4-(3,5-difluorophenyl)-2-hydroxybutylamino)-4-(3-tert-butylphenyl)cyclohexyl)-3-methylurea] | – | >3.5 | –
CNC(=O)NC1CCC(NCC(O)C(Cc2cc(F)cc(F)c2)NC(C)=O)(c2cccc(C(C)(C)C)c2)CC1 (single isomer, unassigned) [196B-39 Diastereomer A, 1-(4-(3-acetamido-4-(3,5-difluorophenyl)-2-hydroxybutylamino)-4-(3-tert-butylphenyl)cyclohexyl)-3-methylurea] | – | >1.3 | –
CC(=O)NC(Cc1cc(F)cc(F)c1)C(O)CNC1(c2cccc(C(C)(C)C)c2)CCCCC1 (stereo not drawn) [Example 195-1, N-[3-[1-(3-tert-Butyl-phenyl)-cyclohexylamino]-1-(3,5-difluoro-benzyl)-2-hydroxy-propyl]-acetamide] | 50 | – | Efficacy (% Inhibition, 100 mg/kg) cortex (A-beta): 62%
CC(=O)NC(Cc1cc(F)cc(F)c1)C(O)CNC1(c2cccc(C(C)C)c2)CCC(=O)CC1 (stereo not drawn) [Example 195-2, N-{1-(3,5-Difluoro-benzyl)-2-hydroxy-3-[1-(3-isopropyl-phenyl)-4-oxo-cyclohexylamino]-propyl}acetamide] | 59 | – | Efficacy (% Inhibition, 100 mg/kg) cortex (A-beta): 47%
CC(=O)NC(Cc1cc(F)cc(F)c1)C(O)CNC1(c2cccc(C(C)(C)C)c2)CCC(=O)CC1 (stereo not drawn) [Example 195-3, N-[3-[1-(3-tert-Butyl-phenyl)-4-oxo-cyclohexylamino]-1-(3,5-difluoro-benzyl)-2-hydroxy-propyl]-acetamide] | 58 | – | –
CC(=O)NC(Cc1cc(F)cc(F)c1)C(O)CNC1(c2cccc(-n3cccn3)c2)CCCCC1 (stereo not drawn) [Example 195-4, N-{1-(3,5-Difluoro-benzyl)-2-hydroxy-3-[1-(3-pyrazol-1-yl-phenyl)-cyclohexylamino]-propyl}-acetamide] | 67 | – | –
COC1CCC(NCC(O)C(Cc2cc(F)cc(F)c2)NC(C)=O)(c2cccc(C(C)(C)C)c2)CC1 (stereo not drawn) [Example 195-6, N-[3-[1-(3-tert-Butyl-phenyl)-4-methoxy-cyclohexylamino]-1-(3,5-difluoro-benzyl)-2-hydroxy-propyl]-acetamide] | 49 | – | –
CSC1CCC(NCC(O)C(Cc2cc(F)cc(F)c2)NC(C)=O)(c2cccc(C(C)(C)C)c2)CC1 (stereo not drawn) [Example 195-9, N-[3-[1-(3-tert-Butyl-phenyl)-4-methylsulfanyl-cyclohexylamino]-1-(3,5-difluoro-benzyl)-2-hydroxy-propyl]-acetamide] | 38 | – | –
CC(=O)NC(Cc1cc(F)cc(F)c1)C(O)CNC1(c2cc(F)cc(C(C)(C)C)c2)CCCCC1 (stereo not drawn) [Example 195-10, N-(4-(1-(3-tert-butyl-5-fluorophenyl)cyclohexylamino)-1-(3,5-difluorophenyl)-3-hydroxybutan-2-yl)acetamide] | 30 | – | –
CC(=O)NC(Cc1ccc(O)c(F)c1)C(O)CNC1(c2cccc(C(C)C)c2)CCCCC1 (stereo not drawn) [Example 196B-1, N-{1-(3-Fluoro-4-hydroxy-benzyl)-2-hydroxy-3[1-(3-isopropyl-phenyl)-cyclohexylamino]-propyl}-acetamide] | – | 3.2 | –
CC(=O)NC(Cc1cc(F)cc(F)c1)C(O)CNC1(c2cccc(C(C)C)c2)CCC(=O)CC1 (stereo not drawn) [Example 196B-2, N-{1-(3,5-Difluoro-benzyl)-2-hydroxy-3-[1-(3-isopropyl-phenyl)-4-oxo-cyclohexylamino]-propyl}-acetamide] | – | 3.7 | –
CC(=O)NC(Cc1cc(F)cc(F)c1)C(O)CNC1(c2cccc(C(C)(C)C)c2)CCC(C)CC1 (stereo not drawn) [Example 196B-5, N-[3-[1-(3-tert-Butyl-phenyl)-4-methyl-cyclohexylamino]-1-(3,5-difluoro-benzyl)-2-hydroxy-propyl]-acetamide] | – | 3.1 | –
CC(=O)NC(Cc1cc(F)cc(F)c1)C(O)CNC1(c2cccc(-c3ccsc3)c2)CCC(=O)CC1 (stereo not drawn) [Example 196B-10, N-(1-(3,5-difluorophenyl)-3-hydroxy-4-(4-oxo-1-(3-(thiophen-3-yl)phenyl)cyclohexylamino)butan-2-yl)acetamide] | – | 5.6 | –
CC(=O)NC(Cc1cc(F)cc(F)c1)C(O)CNC1(c2cccc(-n3cccn3)c2)CCC2(CC1)OCCO2 (stereo not drawn) [Example 196B-13, N-{1-(3,5-Difluoro-benzyl)-2-hydroxy-3-[8-(3-pyrazol-1-yl-phenyl)-1,4-dioxa-spiro[4.5]dec-8-ylamino]-propyl}-acetamide] | – | 2.5 | –
CC(=O)NC(Cc1cc(F)cc(F)c1)C(O)CNC1(c2cccc(C(C)(C)C)c2)CCN(CCC#N)CC1 (stereo not drawn) [Example 196B-26, N-[3-[4-(3-tert-Butyl-phenyl)-1-(2-cyano-ethyl)-piperidin-4-ylamino]-1-(3,5-difluoro-benzyl)-2-hydroxy-propyl]-acetamide] | – | 1.8 | –
CC(=O)NC(Cc1cc(F)cc(F)c1)C(O)CNC1(c2cccc(C(C)(C)C)c2)CCCN(C)C1 (stereo not drawn) [Example 196B-32, N-(4-(3-(3-tert-butylphenyl)-1-methylpiperidin-3-ylamino)-1-(3,5-difluorophenyl)-3-hydroxybutan-2-yl)acetamide] | – | >2,0 | –
CC(=O)NC(Cc1cc(F)cc(F)c1)C(O)CNC1(c2cccc(Br)c2)CCC2(CC1)OCCO2 (stereo not drawn) [Example 196B-40, N-[3-[8-(3-Bromo-phenyl)-1,4-dioxa-spiro[4.5]dec-8-ylamino]-1-(3,5-difluoro-benzyl)-2-hydroxy-propyl]-acetamide] | – | 2.8 | –
CC(=O)NC(Cc1cc(F)cc(F)c1)C(O)CNC1(c2cccc(C(C)(C)C)c2)CCC(C#N)CC1 (stereo not drawn) [Example 196B-41, N-[3-[1-(3-tert-Butyl-phenyl)-4-cyano-cyclohexylamino]-1-(3,5-difluoro-benzyl)-2-hydroxy-propyl]-acetamide] | – | 2.5 | –
CC(=O)NC(Cc1cc(F)cc(F)c1)C(O)CNC1(c2cccc(C(C)(C)C)c2)CCCCC1 (stereo not drawn) [Example 198-1, N-[3-[1-(3-tert-Butyl-phenyl)-cyclohexylamino]-1-(3,5-difluoro-benzyl)-2-hydroxy-propyl]-acetamide] | – | – | Kp at 5 min [2]: 1.7; Kp at 10 min [2]: 3
CC(=O)NC(Cc1cc(F)cc(F)c1)C(O)CNC1(c2cccc(C(C)C)c2)CCC(=O)CC1 (stereo not drawn) [Example 198-3, N-{1-(3,5-Difluoro-benzyl)-2-hydroxy-3-[1-(3-isopropyl-phenyl)-4-oxo-cyclohexylamino]-propyl}-acetamide] | – | – | Kp at 5 min [2]: 0.5; Kp at 10 min [2]: 8.4
CC(=O)NC(Cc1cc(F)cc(F)c1)C(O)CNC1(c2cccc(-c3ccsc3)c2)CCCCC1 (stereo not drawn) [Example 198-4, N-{1-(3,5-Difluoro-benzyl)-2-hydroxy-3-[1-(3-thiophen-3-yl-phenyl)-cyclohexylamino]-propyl}acetamide] | – | – | Kp at 5 min [2]: 0.7; Kp at 10 min [2]: 3.7
